Source: patent US11253507B2 (Singapore Health Services PTE LTD, priority 2017, dated 2022)
“And” between values parts separate entries of the source, which are not always exact repeats. Equal values may be shown once.

Legend:
C57BL/6J mice = assay: Spectacle lens-induced myopia (−15 D lens) model, ocular biometry (axial length, refraction) after 0.01% atropine pre-treatment; format: in vivo; conditions: for Change in AL, Avg +/− SEM: Group 2 mean (n=7), 0.01% atropine pre-treatment for 2 weeks
Protocol: Animals: Three weeks old C57BL/6J mice were purchased from InVivos, Singapore and were held at the animal holding unit of SingHealth Experimental Medicine Centre. The experimental animals were housed individually in standard mouse cages at 25° C. on a schedule of 12:12 h of light on (325 lx) and off (0 lx), with mouse pellets and water available ad libidum. All the procedures performed in this study complied with the Association of Research in Vision and Ophthalmology (ARVO) Statement for the Use of Animals in Ophthalmic and Vision Research and were approved by SingHealth IACUC. Both the eyes of each animal were screened for the ophthalmic abnormalities, such as corneal opacities and anterior polar cataracts.
Mouse model of experimental myopia: Spectacle lens-induced myopia model was established by placing −15 D hard lens on the right eye of the animal, which served as the experimental eye, at post-natal day 35. Briefly, a −15 D lens (PMMA spectacle lens in blue tint, radius of outer curvature 8.5, inner curvature 8 mm, lens thickness 0.5 mm, Flexilens, India) was glued to an annulus (with 8 mm base curve) of Velcro. This mating piece was then attached to the Velcro that had been previously glued to the hair around the right experimental eye using a cyanoacrylate (Super Glue gel, UHU, Germany). This set up ensures that an air gap of 1.5 mm existed between the back part of the lens and the anterior surface of the cornea, so that the contact lens optically acted as a spectacle lens. The right eye of naïve group was attached with plano lens and acted as a negative control in the experimental study. Both the eyes in each animal were examined daily for any infection and the lenses were also cleaned regularly in dim red light. Left eyes were kept uncovered and were not used for any ocular biometry measurement in this study. Elizabethan collars made from thin plastic were fitted around the neck of each mouse upon lens-induction. This was done so as to prevent the mice from removing their lenses. Food pellets were placed on the floor of the cage to make eating easier. This strategy has also been followed previously by other groups doing mouse model of lens-induced myopia (Schaeffel et al., 2004).
Treatment protocols: A total of 27 mice were divided into 4 different groups as mentioned in Table 1, below. […] 7 μL of drug was administered topically to the right eye in dim red light at the same time each day. This was followed by lens (either −15 D or plano) induction on post-natal day 35, that was kept attached until day 49.
(§1) Ocular biometry such as axial length (AL) and refraction measurements were measured as described in Example 2. The measurements were done just before and 2 weeks after lens-induction, at days 35 and 49, respectively. The data was analyzed using the GraphPad Prism software version 7.02. Changes in AL and refraction between any two groups were analyzed using independent unpaired t-tests. A difference at p value<0.05 was considered statistically significant. Data are reported as mean+/−SEM. The body weights were recorded at post-natal days 22, 35 and 49.

[1] = Body weights in the lens-induced myopia study; format: in vivo, mice; conditions: 0.01% atropine topical; post-natal days 22, 35 and 49
Protocol: as §1, with “49. […] Changes in AL and refraction at day 49 relative to measurements at day 35 are shown in FIG. 3A and FIG. 3B, respectively.” for “49.”

B6J (Mus musculus) mice = assay: Murine myopia model (−10 D lens), atropine sulfate eye drops prior to inducing myopia, ocular biometry; format: in vivo
Protocol: Animals: Breeding pair B6J (Mus musculus) mice were obtained from Jackson Lab and produced offspring. Naive control animals were housed in groups of 6 while experimental animals were housed individually in standard mouse cages after 21 days of age at 25° C. on a schedule of 12:12 h of light on and off with mouse pellets and water available ad libidum. Approval was obtained from the SingHealth Institutional Animal Care and Use of Committee (IACUC) and all procedures performed in this study complied with the Association of Research in Vision and Ophthalmology (ARVO) Statement for the Use of Animals in Ophthalmology and Vision Research.
Murine Myopia Model: A −10 D contact lens (PMMA Contact Lens in Grey Tint, 8.5 mm diameter, 8 mm base curve, refractive Index: 1.43, axial thickness: 0.5 mm) was placed over the right eye on day 21 by gluing to an annulus of velcro, and then attaching to a matching piece of velcro that had been previously sutured to the skin around the eye. The spectacle lenses were cleaned daily in dim light and left eyes were uncovered and served as controls. […]
Ocular biometry assessment: Refractions and biometry measurements were recorded every week until the end of the study. Axial length was measured with in vivo Optic Low Coherence Interferometry (OLCI-AcMaster). Refraction was measured by automated eccentric photorefractor. […]

patients = assay: Adverse effects of treatment with very low concentration atropine composition (pupil dilation, loss of accommodation); format: in vivo, human; conditions: composition with very low concentration of atropine (less than 0.025%, e.g. 0.01%); mean +/− SD
From the text: The pupil dilation associated with the treatment is often no greater than 2 mm, e.g., no greater than 1.9 mm, no greater than 1.8 mm, no greater than 1.7 mm, no greater than 1.5 mm, or no greater than 1.49 mm. Typically, patients treated with the composition disclosed above may experience pupil dilation of 0.74+/−0.75 mm. The loss of accommodation associated with the treatment is also minimal, typically no greater than 10 D, e.g., no greater than 9 D, no greater than 8.5 D, no greater than 8.8 D, or no greater than 8 D. Typically, patents treated with the composition disclosed above may experience a loss of accommodation of 4.6+/−4.2 D.

myopic children = conditions: 0.01% atropine daily, cited from earlier work
[2] = Group 2, 0.01% atropine pre-treatment day 22-35, 2 weeks after −15 D lens induction, individual mice
[3] = Group 2, 0.01% atropine pre-treatment, day 49 relative to day 35, −15 D lens, individual mice

## CN1[C@@H]2CC[C@H]1C[C@@H](OC(=O)C(CO)c1ccccc1)C2 (stereo partly shown) [Atropine, atropine]
C57BL/6J mice; 0.01% atropine topical for 2 weeks before lens-induction, two-tailed p-value=0.1557
  Reduction of the increase in AL as compared to vehicle pre-treated myopic eyes: ~15%
C57BL/6J mice; Group 2, 0.01% atropine 7 μL topical daily, day 22-35, right eye, just before −15 D lens induction, individual mice
  Refraction at D35: 7.44 Diopter and 3.71 Diopter and 7.66 Diopter and 5.96 Diopter and 5.29 Diopter and 5.43 Diopter and 8.34 Diopter
C57BL/6J mice; Group 2, 0.01% atropine 7 μL topical daily, post-natal day 22-35, right eye, just before −15 D lens induction, individual mice
  AL at D35: 3.189 mm and 3.159 mm and 3.195 mm and 3.214 mm and 3.297 mm and 3.250 mm and 3.269 mm
C57BL/6J mice; [2]
  AL at D49: 3.268 mm and 3.238 mm and 3.277 mm and 3.340 mm and 3.374 mm and 3.335 mm and 3.386 mm
  Refraction at D49: 5.22 Diopter and −1.85 Diopter and 6.30 Diopter and 6.26 Diopter and 6.27 Diopter and 4.17 Diopter and 8.14 Diopter
C57BL/6J mice; [3]
  Change in AL: 0.079 mm (2×) and 0.082 mm and 0.126 mm and 0.077 mm and 0.084 mm and 0.117 mm
  Change in refraction: −2.22 Diopter and −5.57 Diopter and −1.37 Diopter and 0.30 Diopter and 0.99 Diopter and −1.26 Diopter and −0.20 Diopter
C57BL/6J mice; day 49 relative to day 35, −15 D lens
  Change in AL, Avg +/− SEM: 0.092 mm
C57BL/6J mice; day 49 relative to day 35, −15 D lens, listed as atropine
  Change in AL, Avg +/− SEM: 0.092 mm
[1]
  Impact on body weights: Neither the drug (atropine and vehicle) nor the lens treatment adversely impacted the body weights
B6J (Mus musculus) mice; Atropine sulfate 1% for 2 weeks prior to −10 D lens for 4 weeks, FIG. 1B, p<0.01 vs −10 D lens alone
  Refractive error (refraction state): remained hyperopic
B6J (Mus musculus) mice; Group 2: 1% daily 10 μl topical from day 21 for 2 weeks, then −10 D lens for 4 weeks, FIG. 1A, p<0.01, n=18
  Effect on axial elongation (axial length): blocked most of the elongation of axial length
patients
  Loss of accommodation: 4.6+/−4.2 D
  Pupil dilation: 0.74+/−0.75 mm
Myopic children; ATOM1 and ATOM2
  Reduction of mean 2-year decline in SE vs placebo: about 58%
Myopic children; placebo about −1.2 D (Chia et al.)
  Mean 2-year decline in SE: ~−0.5 D
